Read-outs that look alike come from different tables or passages of the source. No end group written: not given here.
Experiments:
Experiment in all cases: biochemical
Format in all cases: binding
[1] = target: HLA-DR DRB1*1302 (DR13) (Homo sapiens, UniProt P01903+P01911, A100E/A169T/K41T/L162R/M171V/P40S/Q125H/Q178H/Q39Y/Q99D/R42S/S66N/T262R/V115G/W38E/Y61H); settings: DRBI *1302
[2] = target: HLA-DR DRB1*0405 (DR4) (Homo sapiens, UniProt P01903+P01911, A100R/A169T/D86S/F76Y/I96L/K127E/L162R/M171V/N62H/P40V/Q125Y/R42H/S133A/S149N/S66Y/V115G/V209L/W38E)
[3] = target: HLA-DR DRB1*0101 (DR1) (Homo sapiens, UniProt P01903+P01911, A100R/D57E/F55L/F60I/F76Y/I96L/L162R/M171V/P40L/Q125E/R42F/V115G/Y59C)
[4] = target: HLA-DR DRB1*0901 (DR9) (Homo sapiens, UniProt P01903+P01911, A100R/A103E/D57H/D86V/F55Y/F60I/F76Y/I96F/K127E/L162R/M171V/P40D/Q125H/Q99R/R33Q/R42F/S133A/S66N/T210M/V115G/W38K/Y107V/Y59G/Y89S)
[5] = target: HLA-DR DRB4*0101 (DR53) (Homo sapiens, UniProt P01903+P13762, G164S); settings: DRB4 *0101
[6] = target: HLA-DR DRB1*1501 (DR15) (Homo sapiens, UniProt P01903+P01911); settings: DRBI *1501
[7] = target: HLA-DR DRB5*0101 (DR51) (Homo sapiens, UniProt P01903+Q30154); settings: DRB5 *0101
[8] = target: HLA-DR DRB1*1101 (DR11) (Homo sapiens, UniProt P01903+P01911, A100R/A169T/A87E/I96F/K41T/L162R/M171V/P40S/Q125H/Q178H/Q39Y/Q99D/R42S/S66Y/T262R/V115G/W38E); settings: DRB1 *1101
[9] = target: HLA-DR DRB1*0701 (DR7) (Homo sapiens, UniProt P01903+P01911, A100R/A102G/A103Q/D57E/D86V/E43K/F76Y/K127E/L162R/M171V/P40G/Q125H/Q99D/R33Q/R42Y/R54Q/S133A/S66F/T210M/V115G/Y107V/Y59L/Y89S)
[10] = target: HLA-DR DRB1*0301 (DR3) (Homo sapiens, UniProt P01903+P01911, A100K/A102G/A103R/A169T/F55Y/I96L/K41T/L162R/M171V/P40S/Q125H/Q178H/Q39Y/R42S/S66N/T106N/T262R/W38E/Y61H)
[11] = target: HLA-DR DRB1*0401 (DR4) (Homo sapiens, UniProt P01903+P01911, A100K/A169T/F76Y/I96L/K127E/L162R/M171V/N62H/P40V/Q125Y/R42H/S133A/S149N/S66Y/V115G/V209L/W38E)

Chain of HLA-DR DRB1*0301 (DR3) (P01903 26-254 limits assumed, other chains not shown): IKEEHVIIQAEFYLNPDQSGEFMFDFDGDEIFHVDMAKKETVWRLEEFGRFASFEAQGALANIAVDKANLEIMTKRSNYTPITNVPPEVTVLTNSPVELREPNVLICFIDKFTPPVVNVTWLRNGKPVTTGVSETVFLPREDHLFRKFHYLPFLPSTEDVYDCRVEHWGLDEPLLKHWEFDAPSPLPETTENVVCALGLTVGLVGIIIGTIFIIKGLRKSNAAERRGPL
Chain of HLA-DR DRB1*1302 (DR13) (P01903 26-254 limits assumed, other chains not shown): as above
Chain of HLA-DR DRB1*1101 (DR11) (P01903 26-254 limits assumed, other chains not shown): as above

Row | Compound | IC50 [1] | IC50 ([2]; DRB1 *0405) | IC50 ([3]; DRB1 *0101) | IC50 ([4]; DRB1 *0901) | IC50 [5] | IC50 [6] | IC50 [7] | IC50 [8] | IC50 ([9]; DRB1 *0701) | IC50 [10] | IC50 ([11]; DRB1 *0401) | IC50 ([11]; read-out: DRB1 *0401) | IC50 ([2]; read-out: DRB1 *0405) | IC50 ([9]; read-out: DRB1 *0701) | IC50 ([10]; read-out: DRB1 *0301) | IC50 ([3]; read-out: DRB1 *0101) | IC50 ([4]; read-out: DRB1 *0901)
1 | VFEFAFKDLFVVYRD | 7.67 µM | 120 nM | 6720 nM | 16.8 µM | 18100 nM | 4.87 µM | > 10.7 µM |  |  |  |  |  |  |  |  |  | 
2 | YYDYSVYGATLESIT |  | 230 nM | 1010 nM | 1.4 µM | 32400 nM | 1.11 µM | > 51 µM | 9.12 µM |  |  |  |  |  |  |  |  | 
3 | TEVLDFAFTDLTIVY | > 13.1 µM | 871 nM | 2070 nM | 0.349 µM |  | 0.561 µM | > 62.3 µM | > 18 µM |  |  |  |  |  |  |  |  | 
4 | TIVYRDDTPHGVCTK | 6.28 µM | > 9750 nM | 3800 nM | > 39.1 µM | > 21500 nM | 5.45 µM | > 62.3 µM | > 18 µM | > 35.6 µM |  |  |  |  |  |  |  | 
5 | HQAISPRTLNGPGPGSPAIF | 0.638 µM | 3110 nM | 1550 nM |  | 232 nM | 5.57 µM | 32.9 µM | 9.87 µM | 5.08 µM | 728 µM |  |  |  |  |  |  | 
6 | RQDILDLWVYHTQGY | 6.78 µM | 1140 nM | 2390 nM |  | 1330 nM | 0.723 µM | 16.2 µM | > 51.3 µM | 1.63 µM | 98.3 µM | 1200 nM |  |  |  |  |  | 
7 | LRIVYRDGNPFAVCK | 0.123 µM | 557 nM |  |  | 1570 nM |  | 6.82 µM | 0.109 µM | 8.99 µM |  | 16 nM |  |  |  |  |  | 
8 | QDVVLELTPQTEIDL |  | 53 nM |  | 1.68 µM | 1720 nM | > 33.1 µM | > 31.4 µM | > 31.6 µM |  |  | 83 nM |  |  |  |  |  | 
9 | VPTLQDVVLELTPQT | 15 µM | 5410 nM | 16100 nM | > 30.6 µM | 1000 nM |  | > 31.4 µM | > 31.6 µM | > 35.4 µM |  | 214 nM |  |  |  |  |  | 
10 | YKFLFTDLRIVYRDN | 0.077 µM | 91 nM | 109 nM |  | 1340 nM | 2.91 µM | 0.8 µM | 10.1 µM | 1.52 µM | 0.0088 µM |  |  |  |  |  |  | 
11 | LRAFQQLFLNTLSFV | 0.00101 µM | 8.3 nM | 1.5 nM |  | 2.2 nM | 0.02 µM |  |  | 0.075 µM | 0.648 µM | 7.4 nM |  |  |  |  |  | 
12 | RTAMFQDPQERPRKL | 17.1 µM | 7980 nM | 9370 nM | > 25.3 µM | 20500 nM | 73.2 µM | 7.47 µM |  | 32.9 µM |  | 28200 nM |  |  |  |  |  | 
13 | NYSVYGNTLEQTVKK | 8.61 µM | 822 nM | 14100 nM | 47.5 µM | > 25100 nM | 15.6 µM |  | > 56.7 µM | > 14.6 µM |  | 1930 nM |  |  |  |  |  | 
14 | CSCC[C@H](NC(=O)[C@H](Cc1ccc(O)cc1)NC(=O)[C@H](CCC(=O)O)NC(=O)[C@@H](N)Cc1c[nH]cn1)C(=O)N[C@@H](CC(C)C)C(=O)N[C@@H](CC(=O)O)C(=O)N[C@@H](CC(C)C)C(=O)N[C@@H](CCC(N)=O)C(=O)N1CCC[C@H]1C(=O)N[C@@H](CCC(=O)O)C(=O)N[C@H](C(=O)N[C@H](C(=O)N[C@@H](CC(=O)O)C(=O)N[C@@H](CC(C)C)C(=O)N[C@@H](Cc1ccc(O)cc1)C(=O)O)[C@@H](C)O)[C@@H](C)O | 13 µM | 2290 nM |  | 21.3 µM | 2100 nM | 30.9 µM | > 22.9 µM | > 56.2 µM | > 18.6 µM |  |  |  |  |  |  |  | 
15 | CC(C)C[C@H](NC(=O)[C@H](CCC(N)=O)NC(=O)[C@H](CCC(N)=O)NC(=O)[C@H](CC(C)C)NC(=O)[C@@H](NC(=O)[C@H](CCCNC(=N)N)NC(=O)[C@@H](N)CC(C)C)[C@@H](C)O)C(=O)N[C@@H](Cc1ccccc1)C(=O)N[C@@H](CC(C)C)C(=O)N[C@@H](CO)C(=O)N[C@H](C(=O)N[C@@H](CC(C)C)C(=O)N[C@@H](CO)C(=O)N[C@@H](Cc1ccccc1)C(=O)N[C@H](C(=O)O)C(C)C)[C@@H](C)O | 0.055 µM | 9 nM | 8.3 nM |  | 3.1 nM | 0.029 µM | 1.99 µM | 0.208 µM | 0.06 µM | 0.801 µM | 18 nM |  |  |  |  |  | 
16 | CC[C@H](C)[C@H](NC(=O)[C@H](CO)NC(=O)[C@H](CC(=O)O)NC(=O)[C@H](CCCNC(=N)N)NC(=O)[C@H](Cc1ccc(O)cc1)NC(=O)[C@@H](NC(=O)[C@@H](NC(=O)[C@H](Cc1ccccc1)NC(=O)[C@@H](N)CC(C)C)C(C)C)C(C)C)C(=O)N1CCC[C@H]1C(=O)N[C@@H](Cc1c[nH]cn1)C(=O)N[C@@H](C)C(=O)N[C@@H](C)C(=O)N[C@@H](CS)C(=O)N[C@@H](Cc1c[nH]cn1)C(=O)O | 0.697 µM | 690 nM | 131 nM |  | 3580 nM | 0.437 µM | 7.85 µM | 1.58 µM | 2 µM | 0.062 µM | 3 nM |  |  |  |  |  | 
17 | HYCYSLYGTTLEQQY | > 13.7 µM | 76 nM | 546 nM |  |  | 4.85 µM | > 10.7 µM |  | 9.86 µM |  |  |  |  |  |  |  | 
18 | CC[C@H](C)[C@H](NC(=O)[C@@H](N)Cc1c[nH]c2ccccc12)C(=O)N[C@H](C(=O)N[C@@H](CCC(N)=O)C(=O)N[C@@H](CS)C(=O)N[C@@H](Cc1ccccc1)C(=O)N[C@@H](CC(C)C)C(=O)N1CCC[C@H]1C(=O)N[C@H](C(=O)N[C@@H](Cc1ccccc1)C(=O)N[C@@H](CC(C)C)C(=O)N[C@@H](C)C(=O)N[C@@H](CCC(N)=O)C(=O)N1CCC[C@H]1C(=O)N1CCC[C@H]1C(=O)N[C@@H](CO)C(=O)NCC(=O)N[C@@H](CCC(N)=O)C(=O)N[C@@H](CCCNC(=N)N)C(=O)N[C@@H](CCCNC(=N)N)C(=O)O)C(C)C)[C@@H](C)O |  | 216 nM | 679 nM |  |  |  |  |  | 74.2 µM | 25.5 µM | 88 nM |  |  |  |  |  | 
19 | DLFVVYRDSIPHAAC | 11.2 µM | 3590 nM |  | 2.37 µM | 2680 nM | 2.83 µM | 10.7 µM |  | 5.21 µM |  | 82 nM |  |  |  |  |  | 
20 | IDGVNHQHLPARRAE | > 11.5 µM | > 17000 nM |  | > 39.9 µM |  | > 36.8 µM | 12.6 µM | > 56.2 µM | > 18.6 µM |  | 34300 nM |  |  |  |  |  | 
21 | KDYILDLQPETTDLH | 23.7 µM | 2770 nM |  | > 49.9 µM | 490 nM | > 37.4 µM | > 55.1 µM | > 17.4 µM | > 72.3 µM |  | 1020 nM |  |  |  |  |  | 
22 | YDFVFADLRIVYRNG |  |  |  |  |  |  |  |  |  |  |  | 1910 nM | 829 nM | 21.4 µM | 0.013 µM |  | 
23 | YLAMPFATPMEAELARRSLA | 2.81 µM | 405 nM | 46 nM |  | 1960 nM | 0.865 µM | 0.641 µM |  |  | 46.6 µM | 266 nM |  |  |  |  |  | 
24 | IQQLLMGTVNIYCPT |  |  |  |  |  |  |  |  |  |  |  |  | 624 nM |  | 93.7 µM | 71 nM | 
25 | CKFVVQLDIQSTKED [CKFVVQLDIQSTKED] | > 11.4 µM | 374 nM |  | 19.3 µM | 301 nM | 22.9 µM | > 31.4 µM | > 31.6 µM | 4.55 µM |  |  |  |  |  |  |  | 
26 | VVQLDIQSTKEDLRV |  |  |  |  |  |  |  |  |  |  |  | 11100 nM | 46 nM | 3.76 µM |  |  | 13.9 µM

Source: US20060079453A1, “Hla binding peptides and their uses” (priority 2002, published 2006)
